From article PMC4850510 (ACS Central Science, 2016)

Legend:
CBS = settings: read-out: IC50 for CBS; cited from earlier work
GABA AT = GABA AT (Rattus norvegicus, UniProt P50554); assay: GABA transaminase; type: biochemical
Chain of GABA AT (P50554 28-500): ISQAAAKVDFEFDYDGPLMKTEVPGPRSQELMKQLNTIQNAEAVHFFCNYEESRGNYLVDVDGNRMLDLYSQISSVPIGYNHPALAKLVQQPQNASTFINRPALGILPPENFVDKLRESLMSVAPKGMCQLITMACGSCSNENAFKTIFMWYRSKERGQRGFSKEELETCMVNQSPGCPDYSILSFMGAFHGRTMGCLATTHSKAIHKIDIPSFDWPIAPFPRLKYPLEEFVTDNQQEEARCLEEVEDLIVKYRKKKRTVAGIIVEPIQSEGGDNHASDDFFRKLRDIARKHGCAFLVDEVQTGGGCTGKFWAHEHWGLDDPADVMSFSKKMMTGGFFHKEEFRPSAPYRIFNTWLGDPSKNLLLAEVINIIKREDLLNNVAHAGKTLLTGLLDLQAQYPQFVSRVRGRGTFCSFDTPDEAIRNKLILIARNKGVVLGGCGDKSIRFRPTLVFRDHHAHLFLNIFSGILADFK

For `NOCC(=O)O` [AOAA, aminooxyacetic acid], the IC50 (CBS) is listed as about 12 µM, the “fold better inhibitor of GABA AT than of CBS” value (GABA AT; IC50 GABA AT vs IC50 CBS) is listed as 33 fold and the IC50 (GABA AT; read-out: IC50 for GABA AT, rat brain homogenate) is listed as about 0.36 µM.
